Key:
[1] = molecular target: T1, Nitric oxide synthase, inducible (Mus musculus, UniProt P29477); set-up: species or system Escherichia coli;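 note: inhibition of iNOS enzyme activity measured with L-arginine as substrate; in other assays of this panel Not Active means under 50% inhibition at 10 µM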
T1 sequence (P29477 whole entry): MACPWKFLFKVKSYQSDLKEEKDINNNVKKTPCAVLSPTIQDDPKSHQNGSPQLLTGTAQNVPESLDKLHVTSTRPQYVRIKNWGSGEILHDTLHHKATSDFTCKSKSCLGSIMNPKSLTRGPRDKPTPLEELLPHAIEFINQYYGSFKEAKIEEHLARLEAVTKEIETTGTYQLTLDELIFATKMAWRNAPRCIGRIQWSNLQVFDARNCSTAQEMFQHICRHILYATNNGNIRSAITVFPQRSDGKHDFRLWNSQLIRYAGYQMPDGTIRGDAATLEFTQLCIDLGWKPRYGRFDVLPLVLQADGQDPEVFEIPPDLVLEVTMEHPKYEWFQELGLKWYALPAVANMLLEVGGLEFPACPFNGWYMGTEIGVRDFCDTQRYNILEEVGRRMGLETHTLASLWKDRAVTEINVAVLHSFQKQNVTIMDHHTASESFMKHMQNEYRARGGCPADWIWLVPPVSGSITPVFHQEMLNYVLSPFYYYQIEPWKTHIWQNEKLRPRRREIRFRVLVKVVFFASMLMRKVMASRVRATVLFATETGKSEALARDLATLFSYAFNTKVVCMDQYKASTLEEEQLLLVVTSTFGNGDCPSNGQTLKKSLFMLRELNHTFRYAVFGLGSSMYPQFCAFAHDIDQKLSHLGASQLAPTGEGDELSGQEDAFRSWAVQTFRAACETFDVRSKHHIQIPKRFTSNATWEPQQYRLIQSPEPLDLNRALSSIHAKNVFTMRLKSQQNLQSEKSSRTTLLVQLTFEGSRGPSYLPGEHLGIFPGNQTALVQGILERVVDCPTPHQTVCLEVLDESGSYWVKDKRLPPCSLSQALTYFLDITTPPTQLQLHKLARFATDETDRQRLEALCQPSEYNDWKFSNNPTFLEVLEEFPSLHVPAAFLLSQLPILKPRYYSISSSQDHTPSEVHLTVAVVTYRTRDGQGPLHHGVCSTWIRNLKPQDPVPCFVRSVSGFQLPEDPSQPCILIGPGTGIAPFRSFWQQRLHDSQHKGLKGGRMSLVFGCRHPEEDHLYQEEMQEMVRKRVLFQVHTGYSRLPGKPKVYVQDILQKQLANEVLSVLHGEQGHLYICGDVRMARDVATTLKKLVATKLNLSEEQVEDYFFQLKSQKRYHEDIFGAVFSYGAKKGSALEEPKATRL

[2] = DRUGMATRIX: GABAA, Muscimol, Central radioligand binding (ligand: [3H] Muscimol); assay type: cell membranes, Rattus norvegicus, Wistar, Brain, Membrane; settings: Not Active = under 50% inhibition at 10 µM
[3] = molecular target: T2, B2 bradykinin receptor (Homo sapiens, UniProt P30411); assay type: cell membranes, Membrane; settings: chem-1; note: in other assays of this panel Not Active means under 50% inhibition at 10 µM
T2 sequence (P30411 whole entry): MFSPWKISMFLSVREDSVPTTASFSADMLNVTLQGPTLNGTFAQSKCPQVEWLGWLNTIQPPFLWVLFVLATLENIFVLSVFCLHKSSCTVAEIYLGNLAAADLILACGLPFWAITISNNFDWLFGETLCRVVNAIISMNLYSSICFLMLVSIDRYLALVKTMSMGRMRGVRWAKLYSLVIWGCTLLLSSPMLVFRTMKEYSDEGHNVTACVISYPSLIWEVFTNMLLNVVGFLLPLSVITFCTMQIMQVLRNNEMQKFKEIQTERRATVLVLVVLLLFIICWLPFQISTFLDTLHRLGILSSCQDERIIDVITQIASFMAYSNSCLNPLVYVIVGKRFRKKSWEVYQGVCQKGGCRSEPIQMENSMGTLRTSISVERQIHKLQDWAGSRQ

[4] = DRUGMATRIX: Purinergic P2X radioligand binding (ligand: [3H] alpha, beta-Methylene-ATP); assay type: cell membranes, Oryctolagus cuniculus, New Zealand albino, Urinary bladder, Membrane; settings: Not Active = under 50% inhibition at 10 µM
[5] = molecular target: T3, Muscarinic acetylcholine receptor M5 (Homo sapiens, UniProt P08912); assay type: cell membranes, Membrane; settings: cho-k1; note: in other assays of this panel Not Active means under 50% inhibition at 10 µM
T3 sequence (P08912 whole entry): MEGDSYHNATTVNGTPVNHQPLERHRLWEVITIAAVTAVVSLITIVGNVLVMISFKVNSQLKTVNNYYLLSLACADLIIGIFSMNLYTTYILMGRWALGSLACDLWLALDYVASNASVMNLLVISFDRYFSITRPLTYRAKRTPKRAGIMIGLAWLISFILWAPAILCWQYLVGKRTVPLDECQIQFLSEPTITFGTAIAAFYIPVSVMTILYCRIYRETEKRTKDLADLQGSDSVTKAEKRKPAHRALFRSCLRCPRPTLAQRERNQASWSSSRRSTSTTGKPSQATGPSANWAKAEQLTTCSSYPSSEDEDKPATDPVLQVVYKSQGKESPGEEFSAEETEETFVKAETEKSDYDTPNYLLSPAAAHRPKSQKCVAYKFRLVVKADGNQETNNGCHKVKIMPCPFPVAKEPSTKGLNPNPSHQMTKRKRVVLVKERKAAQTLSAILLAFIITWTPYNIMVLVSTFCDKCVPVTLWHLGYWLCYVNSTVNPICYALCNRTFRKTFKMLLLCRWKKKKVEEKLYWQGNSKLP

[6] = molecular target: Acetylcholinesterase (Homo sapiens, UniProt P22303); test: DRUGMATRIX: Acetylcholinesterase enzyme inhibition (substrate: acetylthiocholine); assay type: cell-based, HEK293; settings: hek293; Not Active = under 50% inhibition at 10 µM
Sequence of Acetylcholinesterase (P22303 whole entry): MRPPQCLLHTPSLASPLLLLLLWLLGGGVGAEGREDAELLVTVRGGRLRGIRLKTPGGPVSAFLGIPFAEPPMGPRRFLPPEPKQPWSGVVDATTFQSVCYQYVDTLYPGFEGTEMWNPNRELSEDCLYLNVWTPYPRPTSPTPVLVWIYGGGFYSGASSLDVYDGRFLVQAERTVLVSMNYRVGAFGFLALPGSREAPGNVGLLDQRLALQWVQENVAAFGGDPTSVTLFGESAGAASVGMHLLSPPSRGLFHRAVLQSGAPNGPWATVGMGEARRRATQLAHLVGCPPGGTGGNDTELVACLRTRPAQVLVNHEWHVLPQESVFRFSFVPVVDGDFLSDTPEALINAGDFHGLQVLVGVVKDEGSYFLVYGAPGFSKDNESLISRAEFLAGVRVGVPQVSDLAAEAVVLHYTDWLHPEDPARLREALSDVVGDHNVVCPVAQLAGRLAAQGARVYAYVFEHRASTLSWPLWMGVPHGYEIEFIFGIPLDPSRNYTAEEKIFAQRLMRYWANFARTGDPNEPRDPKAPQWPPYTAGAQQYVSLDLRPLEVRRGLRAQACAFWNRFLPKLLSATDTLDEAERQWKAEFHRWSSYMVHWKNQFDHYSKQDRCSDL

[7] = DRUGMATRIX: Serotonin (5-Hydroxytryptamine) 5-HT3 radioligand binding (ligand: [3H] GR-65630); assay type: cell membranes, Membrane; settings: hek293; Not Active = under 50% inhibition at 10 µM
[8] = molecular target: T4, Cytochrome P450 1A2 (Homo sapiens, UniProt P05177); settings: bti-tn-5b1-4; note: in other assays of this panel Not Active means under 50% inhibition at 10 µM
T4 sequence (P05177 whole entry): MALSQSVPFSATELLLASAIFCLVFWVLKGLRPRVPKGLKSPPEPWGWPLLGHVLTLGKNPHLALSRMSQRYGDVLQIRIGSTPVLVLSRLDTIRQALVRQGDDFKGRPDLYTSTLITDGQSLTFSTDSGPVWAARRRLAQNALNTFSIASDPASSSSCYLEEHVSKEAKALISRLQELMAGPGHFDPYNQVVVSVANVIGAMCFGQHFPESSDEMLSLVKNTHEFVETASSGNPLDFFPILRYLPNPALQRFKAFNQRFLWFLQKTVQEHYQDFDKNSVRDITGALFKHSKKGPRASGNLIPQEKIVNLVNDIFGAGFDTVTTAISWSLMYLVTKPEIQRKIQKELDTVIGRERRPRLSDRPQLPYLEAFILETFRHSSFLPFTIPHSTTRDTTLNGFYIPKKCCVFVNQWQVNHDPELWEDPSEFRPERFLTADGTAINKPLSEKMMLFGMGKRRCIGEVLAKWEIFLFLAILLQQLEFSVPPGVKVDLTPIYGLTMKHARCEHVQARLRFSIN

CC[C@H]1OC(=O)[C@H](C)[C@@H](O[C@H]2C[C@@](C)(OC)[C@@H](O)[C@H](C)O2)[C@H](C)[C@@H](O[C@@H]2O[C@H](C)C[C@H](N(C)C)[C@H]2O)[C@](C)(O)C[C@@H](C)CN(C)[C@H](C)[C@@H](O)[C@]1(C)O [AZITHROMYCIN]
Not Active: IC50 [1] | IC50 [2] | Ki [2] | IC50 [3] | IC50 [4] | Ki [4] | IC50 [5] | IC50 [6] | IC50 [7] | Ki [7] | IC50 [8] | Ki [8]

CC(C)(C)c1ccc(S(=O)(=O)/C=C/C#N)cc1 [BAY-11-7085]
Not Active: IC50 [1] | IC50 [2] | Ki [2] | IC50 [3] | IC50 [4] | Ki [4] | IC50 [5] | IC50 [6] | IC50 [7] | Ki [7] | IC50 [8] | Ki [8]

CCc1oc2ccccc2c1C(=O)c1cc(Br)c(O)c(Br)c1 [BENZBROMARONE]
Not Active: IC50 [1] | IC50 [2] | Ki [2] | IC50 [3] | IC50 [4] | Ki [4] | IC50 [5] | IC50 [6] | IC50 [7] | Ki [7] | IC50 [8] | Ki [8]

O=c1cc(-c2ccccc2)oc2ccc3ccccc3c12 [BETA-NAPHTHOFLAVONE]
Not Active: IC50 [1] | IC50 [2] | Ki [2] | IC50 [3] | IC50 [4] | Ki [4] | IC50 [5] | IC50 [6] | IC50 [7] | Ki [7] | IC50 [8] | Ki [8]

CC(C)C[C@H]1C(=O)N2CCC[C@H]2[C@]2(O)O[C@](NC(=O)[C@@H]3C=C4c5cccc6[nH]c(Br)c(c56)C[C@H]4N(C)C3)(C(C)C)C(=O)N12 [BROMOCRIPTINE]
Not Active: IC50 [1] | IC50 [2] | Ki [2] | IC50 [3] | IC50 [4] | Ki [4] | IC50 [5] | IC50 [6] | IC50 [7] | Ki [7] | IC50 [8] | Ki [8]

CS(=O)(=O)OCCCCOS(C)(=O)=O [BUSULFAN]
Not Active: IC50 [1] | IC50 [2] | Ki [2] | IC50 [3] | IC50 [4] | Ki [4] | IC50 [5] | IC50 [6] | IC50 [7] | Ki [7] | IC50 [8] | Ki [8]

O=C(/C=C/c1ccc(O)c(O)c1)OCCc1ccccc1 [CAFFEIC ACID PHENETHYL ESTER]
Not Active: IC50 [1] | IC50 [2] | Ki [2] | IC50 [3] | IC50 [4] | Ki [4] | IC50 [5] | IC50 [6] | IC50 [7] | Ki [7] | IC50 [8] | Ki [8]

NC(=O)N1c2ccccc2C=Cc2ccccc21 [CARBAMAZEPINE]
Not Active: IC50 [1] | IC50 [2] | Ki [2] | IC50 [3] | IC50 [4] | Ki [4] | IC50 [5] | IC50 [6] | IC50 [7] | Ki [7] | IC50 [8] | Ki [8]

CCOC(=O)n1ccn(C)c1=S [CARBIMAZOLE]
Not Active: IC50 [1] | IC50 [2] | Ki [2] | IC50 [3] | IC50 [4] | Ki [4] | IC50 [5] | IC50 [6] | IC50 [7] | Ki [7] | IC50 [8] | Ki [8]

Oc1ccccc1O [CATECHOL]
Not Active: IC50 [1] | IC50 [2] | Ki [2] | IC50 [3] | IC50 [4] | Ki [4] | IC50 [5] | IC50 [6] | IC50 [7] | Ki [7] | IC50 [8] | Ki [8]

Reference: ChEMBL document CHEMBL1909046, “DrugMatrix in vitro pharmacology data”
